The target in one test is Syk kinase (Homo sapiens, UniProt P43405). The experiment in a line: SYK Enzymatic Assay (Z-LYTE Tyr 2 peptide). It is filed as biochemical. To be noted: 8 concentrations 1 μM down to 0.0003 μM. The procedure, abridged: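 Z-LYTE format using Tyr 2 peptide. After the 1 h room-temperature kinase reaction, development reagent was added for 1 h, then stop reagent. Fluorescence was read at 445 and 520 nm. Compounds were tested at 8 concentrations, 1 μM down to 0.0003 μM (1:3 dilutions).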

Another test deals with RBL-2H3 cells. The experiment in a line: IgE-induced Beta-hexosaminidase secretion in RBL-2H3 cells. It is filed as cell-based. The note with it: Rattus norvegicus, RBL-2H3, IgE-induced Beta-hexosaminidase secretion, DNP-BSA stimulation. The method, boiled down:
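RBL-2H3 cells sensitized overnight with 0.5 ug/ml SPE-7 IgE, washed, preincubated with compound 20 min at 37° C, then stimulated with DNP-BSA (150 ng/mL stock) for 45 min. Released β-hexosaminidase measured on supernatant with 1 mM 4-nitrophenyl N-acetyl-β-D-glucosaminide, pH 4.5, 1.5 hr at 37° C; absorbance 405 nm after carbonate quench.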

Take `CC1(c2ccc(-c3cc4nccnc4c(OC[C@@H]4CN(S(C)(=O)=O)CCO4)n3)cc2)COC1` [Compound 317]: the IC50 on Syk kinase is 0.033 µM; with RBL-2H3 cells, 0.094 µM.

With `CC(C)(C(=O)O)c1ccc(-c2cc3nccnc3c(OC[C@@H]3CN(S(C)(=O)=O)CCO3)n2)cc1` [Compound 318], the IC50 at Syk kinase was 0.017 µM; in the test with RBL-2H3 cells it was 0.174 µM.

Regarding `CC(=O)N1CC(C)(c2ccc(-c3cc4nccnc4c(OC[C@@H]4CN(S(C)(=O)=O)CCO4)n3)cc2)C1` [Compound 321], the half-maximal inhibitory concentration (IC50) on Syk kinase came out at 0.014 µM; in the test with RBL-2H3 cells, 0.127 µM.

Broadly, the IC50 is the midpoint of a concentration-inhibition curve. Low readings indicate greater potency in that assay, high ones weaker potency in that assay.

For the origin of these results see patent US20170152258A9, “Substituted Pyridopyrazines as Syk Inhibitors” (HUTCHISON MEDIPHARMA LIMITED, priority 2012, published 2017).
